This is an account of results in ChEMBL document CHEMBL4190372, “Discovery of a Novel Oral Glucocorticoid Receptor Modulator (AZD9567) with Improved Side Effect Profile” (J Med Chem, 2018).

pIC50: −log10 of the molar value. Some results are limits rather than exact numbers.

The subject of one data set is Rattus norvegicus. The experiment in a line: Antiinflammatory activity in streptococcal cell wall reactivation Lewis rat model assessed as reduction of joint swelling at 0.1 mg/kg administered once daily for 8 days by oral gavage starting 1 day prior to streptococcal cell wall challenge measured during 6 days post challenge relative to control. In kind it is functional. More on the design: scale not given: the % may be the effect or the level left.

Data set [1] addresses T1, Glucocorticoid receptor (Homo sapiens, UniProt P04150).
T1 sequence (P04150 whole entry): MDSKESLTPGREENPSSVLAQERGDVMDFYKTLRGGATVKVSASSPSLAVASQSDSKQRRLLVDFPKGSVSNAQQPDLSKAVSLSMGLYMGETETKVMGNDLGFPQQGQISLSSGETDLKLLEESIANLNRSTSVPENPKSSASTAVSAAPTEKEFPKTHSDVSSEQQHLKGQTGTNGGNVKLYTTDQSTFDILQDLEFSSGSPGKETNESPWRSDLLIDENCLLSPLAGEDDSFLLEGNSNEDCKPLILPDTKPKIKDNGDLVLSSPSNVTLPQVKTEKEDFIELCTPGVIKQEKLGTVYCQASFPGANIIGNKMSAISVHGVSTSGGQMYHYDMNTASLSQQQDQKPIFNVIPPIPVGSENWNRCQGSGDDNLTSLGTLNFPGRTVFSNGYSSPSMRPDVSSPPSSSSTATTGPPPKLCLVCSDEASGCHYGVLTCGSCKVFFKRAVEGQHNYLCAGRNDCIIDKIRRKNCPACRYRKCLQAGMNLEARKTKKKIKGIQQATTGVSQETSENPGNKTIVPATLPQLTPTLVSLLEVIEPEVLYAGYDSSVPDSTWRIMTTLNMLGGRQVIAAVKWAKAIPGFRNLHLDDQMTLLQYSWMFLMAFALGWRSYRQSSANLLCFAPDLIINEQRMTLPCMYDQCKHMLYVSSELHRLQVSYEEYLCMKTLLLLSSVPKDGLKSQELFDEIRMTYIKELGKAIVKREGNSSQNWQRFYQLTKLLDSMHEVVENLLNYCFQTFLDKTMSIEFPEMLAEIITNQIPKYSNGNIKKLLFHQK
Description: (§1) Transrepression of GR in human whole blood assessed as inhibition of LPS-induced TNF-alpha release preincubated for 45 mins followed by LPS addition after 18 hrs by AlphaLISA method

For another data set, the target named is Estrogen receptor beta (Homo sapiens, UniProt Q92731). The experiment in a line: Binding affinity to human ERbeta expressed in Sf9 cells by fluoligand binding-based fluorescence polarization method. (Fluorescence polarisation rises when a labelled molecule tumbles more slowly, as on binding a larger partner.)
Data set [2] has as its target T2, Glucocorticoid receptor (Homo sapiens) (UniProt P04150).
T2 sequence (whole entry): T1 sequence (P04150 whole entry)
Description: as §1

For data set [3], the target named is T3, Glucocorticoid receptor (Rattus norvegicus, UniProt P06536).
T3 sequence (P06536 whole entry): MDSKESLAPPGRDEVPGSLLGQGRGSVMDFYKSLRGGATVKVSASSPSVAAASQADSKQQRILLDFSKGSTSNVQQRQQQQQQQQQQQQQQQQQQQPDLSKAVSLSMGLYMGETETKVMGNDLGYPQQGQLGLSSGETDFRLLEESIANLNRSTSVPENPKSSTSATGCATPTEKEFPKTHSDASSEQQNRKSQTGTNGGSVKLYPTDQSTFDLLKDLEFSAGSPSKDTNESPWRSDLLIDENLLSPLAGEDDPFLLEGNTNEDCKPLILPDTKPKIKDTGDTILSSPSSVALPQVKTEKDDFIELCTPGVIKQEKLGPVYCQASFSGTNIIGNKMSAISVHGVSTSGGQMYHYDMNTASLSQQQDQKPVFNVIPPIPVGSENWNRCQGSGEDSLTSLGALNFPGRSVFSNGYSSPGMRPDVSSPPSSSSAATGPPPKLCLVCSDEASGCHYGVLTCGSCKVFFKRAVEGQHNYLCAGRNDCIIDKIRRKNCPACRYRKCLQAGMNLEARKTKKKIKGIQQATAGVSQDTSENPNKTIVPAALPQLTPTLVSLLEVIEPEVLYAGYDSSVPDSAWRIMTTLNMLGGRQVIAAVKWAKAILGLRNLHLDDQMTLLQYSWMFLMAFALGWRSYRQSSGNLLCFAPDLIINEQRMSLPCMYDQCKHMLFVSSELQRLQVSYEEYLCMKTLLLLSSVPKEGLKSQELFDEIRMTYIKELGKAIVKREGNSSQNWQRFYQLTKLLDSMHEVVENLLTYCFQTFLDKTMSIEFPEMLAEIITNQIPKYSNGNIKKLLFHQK
In words: Modulation of glucocorticoid receptor in rat whole blood.

A further data set concerns the target T4, Progesterone receptor (Homo sapiens, UniProt P06401).
T4 sequence (P06401 whole entry): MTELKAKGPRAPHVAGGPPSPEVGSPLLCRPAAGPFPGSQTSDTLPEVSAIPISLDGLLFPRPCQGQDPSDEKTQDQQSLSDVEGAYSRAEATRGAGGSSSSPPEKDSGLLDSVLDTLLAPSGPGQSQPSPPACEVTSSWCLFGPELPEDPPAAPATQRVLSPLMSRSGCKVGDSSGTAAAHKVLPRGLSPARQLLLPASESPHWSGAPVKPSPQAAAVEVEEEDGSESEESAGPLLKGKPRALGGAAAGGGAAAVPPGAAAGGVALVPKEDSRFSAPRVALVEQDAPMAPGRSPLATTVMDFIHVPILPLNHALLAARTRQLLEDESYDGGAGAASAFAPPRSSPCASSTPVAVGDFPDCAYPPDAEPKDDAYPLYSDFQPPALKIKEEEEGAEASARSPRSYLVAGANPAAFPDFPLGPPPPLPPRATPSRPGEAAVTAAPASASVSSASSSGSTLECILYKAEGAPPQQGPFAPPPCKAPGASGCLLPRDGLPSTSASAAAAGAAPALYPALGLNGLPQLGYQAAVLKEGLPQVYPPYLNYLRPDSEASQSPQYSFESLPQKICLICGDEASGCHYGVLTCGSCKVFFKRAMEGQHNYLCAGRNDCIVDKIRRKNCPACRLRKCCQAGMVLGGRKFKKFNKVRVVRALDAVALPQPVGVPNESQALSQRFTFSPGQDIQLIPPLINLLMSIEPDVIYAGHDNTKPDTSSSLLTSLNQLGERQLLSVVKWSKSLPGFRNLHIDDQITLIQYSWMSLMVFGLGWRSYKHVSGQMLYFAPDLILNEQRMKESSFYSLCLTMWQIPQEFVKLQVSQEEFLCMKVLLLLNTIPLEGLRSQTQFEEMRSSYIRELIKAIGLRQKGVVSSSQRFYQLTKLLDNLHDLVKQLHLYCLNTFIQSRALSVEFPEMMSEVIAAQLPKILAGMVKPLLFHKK
In words: Displacement of [3H]progesterone from progesterone receptor in human T47D cells after 1200 mins by scintillation counting method. In kind it is cell-based.

A short description of data set [4]: Ratio of drug level in rat blood to plasma. In kind it is ADME, cell-free. The note with it: blood and plasma.
Data set [5] in a line: Clearance in Beagle dog at 0.5 mg/kg, po. In kind it is ADME, organism-based, Canis lupus familiaris. The note with it: in vivo.

Estrogen receptor beta, sequence (Q92731 whole entry): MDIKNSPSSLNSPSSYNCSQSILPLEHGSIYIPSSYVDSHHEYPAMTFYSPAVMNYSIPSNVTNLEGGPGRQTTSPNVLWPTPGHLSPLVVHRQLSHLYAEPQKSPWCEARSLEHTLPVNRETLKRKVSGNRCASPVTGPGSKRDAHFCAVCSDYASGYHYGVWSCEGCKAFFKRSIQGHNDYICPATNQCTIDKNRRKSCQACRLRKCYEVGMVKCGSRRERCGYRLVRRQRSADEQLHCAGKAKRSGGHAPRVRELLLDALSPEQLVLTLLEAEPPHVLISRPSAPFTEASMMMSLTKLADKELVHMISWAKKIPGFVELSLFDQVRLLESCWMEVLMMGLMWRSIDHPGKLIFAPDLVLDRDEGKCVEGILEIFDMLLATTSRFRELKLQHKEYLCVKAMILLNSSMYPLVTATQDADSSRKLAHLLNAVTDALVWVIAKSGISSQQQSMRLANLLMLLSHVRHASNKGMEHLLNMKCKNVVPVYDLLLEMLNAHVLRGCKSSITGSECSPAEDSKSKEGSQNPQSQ

Regarding `CC(C)[C@H](NC(=O)C(C)(F)F)[C@H](Oc1ccc2c(cnn2-c2ccc(=O)n(C)c2)c1)c1ccccc1` [MIZACORAT], in the data set on Rattus norvegicus, the Activity is given as 42%. The pIC50 (as a rule, −log10 of the IC50, conventionally taken in molar units) at Glucocorticoid receptor [1] was 6.17; on Estrogen receptor beta it was less than 4.00; on Glucocorticoid receptor [3], 7.72; on Progesterone receptor, 5.28. Besides, the fIC30 in data set [2] was 1.4 nM. In data set [4], the blood plasma ratio was 0.64. Further, the apparent clearance CL/F – broadly, the apparent clearance, not corrected for the fraction that reaches the circulation – in data set [5] amounted to 3.2 mL/min/kg.
